Results taken from PMC5454942, “The Potential of Triterpenoids from Loquat Leaves (Eriobotrya japonica) for Prevention and Treatment of Skin Disorder” (International Journal of Molecular Sciences, 2017).
Converted amounts (≈) assume the structure as drawn. “And” between values parts separate entries of the source, which are not always exact repeats. Equal values may be shown once. Read-outs that look alike come from different tables or passages of the source.

Tests used:
[1] = Cell viability of B16 melanoma cells (MTT); conditions: mouse
[2] = tested on: mushroom tyrosinase; assay: Tyrosinase inhibition assay; assay type: biochemical; conditions: for inhibitory effect on tyrosinase (in words): L-DOPA as substrate; for inhibitory activity on tyrosinase (in words): L-tyrosine as substrate, relatively high concentrations
Protocol: Tyrosinase inhibition activity was evaluated by using L-tyrosine and L-DOPA as substrates, as described. Briefly, 333 μL of 2.5 mM L-tyrosine or L-DOPA solution (Sigma-Aldrich) was mixed with 600 μL of 0.1 M phosphate buffer (pH 6.8) and incubated at 25 °C. Then, 33 μL of the sample solution (dissolved in DMSO in various concentrations) and 33 μL of 1380 units/mL mushroom tyrosinase (Sigma-Aldrich) were added to the mixture. The optical density was measured at 475 nm up to the appropriate time. Kojic acid (Sigma-Aldrich) was used as the positive control; the final concentration is 3.3 μg/mL.

[3] = Cell viability of RBL-2H3 cells (parallel MTT); assay type: cell-based, rat; conditions: rat; 25 μg/ml, RBL-2H3 cells; read-out: Cell viability
In short: (§1)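 IgE-sensitized RBL-2H3 cells (0.5 μg/mL anti-DNP IgE, 24 h) treated with sample 30 min in Tyrode buffer, then challenged 1 h with 50 μg/mL DNP-BSA. Released β-hexosaminidase measured with 2 mM p-nitrophenyl-N-acetyl-β-glucosaminide, 3 h, A405; viability by parallel MTT.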

[4] = tested on: inflammation induced by 12-O-tetradecanoylphorbol-13-acetate (TPA); set-up: method as in PMID 16204964, PMID 14745168; conditions: mice; cited from earlier work
[5] = tested on: Epstein–Barr virus early antigen; set-up: method as in PMID 16204964, PMID 14745168; conditions: cited from earlier work
[6] = tested on: Propionibacterium acnes; assay: Anti-bacterial assay (growth inhibition, MIC/MBC by broth microdilution); assay type: cell-based; conditions: for MBC / MIC / inhibition at 100 µg/mL: Cutibacterium acnes; for inhibition at 100 µg/mL: read-out: Inhibition Rate (P. acnes growth); for activity against P. acnes (in words): at their maximum solubility
In short: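 P. acnes NBRC 107605 grown in GAM broth 30 h at 37 °C, then used at 10^5 CFU/mL. Compounds in DMSO incubated with bacteria 30 h at 37 °C; growth read at 630 nm. MIC and MBC by broth microdilution.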

[7] = tested on: NHDF-Ad cells; assay: Hyaluronic acid production assay (ELISA, with MTT); assay type: cell-based, human; conditions: fold of control
Protocol: NHDF-Ad cells were seeded on 96-well plates (5 × 10^3 cells/well) for 24 h before the treatment. The medium was replaced with a mixture of 1 μL of sample solution (DMSO < 0.5% per well) and 99 μL of DMEM supplemented with 0.5% FBS. After 72 h cultivation, the amount of hyaluronic acid in the medium was measured using a QnE Hyaluronic acid ELISA kit (Biotech Trading Partners, Encinitas, CA, USA). The amount of hyaluronic acid production was quantitatively calculated from the standard curve. Cell viability was measured by the MTT method, and ascorbic acid was used as a positive control.

[8] = tested on: B16 melanoma cells; assay: Anti-melanogenesis assay (melanin content); assay type: cell-based, mouse; conditions: for inhibition at 1 µg/mL: 1 μg/ml; for inhibition at 10 µg/mL: 10 μg/ml
In short: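 B16 cells treated with samples in DMSO (<0.2%) for 48 h, then re-dosed in fresh medium for a further 24 h; arbutin served as positive control. Melanin content read at 405 nm and viability by MTT at 570 nm.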

[9] = tested on: RBL-2H3 cells; assay: β-hexosaminidase release from IgE-stimulated RBL-2H3 mast cells; assay type: cell-based, rat
In short: as §1

[10] = tested on: B16 melanoma cells; assay: Cell viability of B16 melanoma cells (MTT); conditions: for Inhibition rate (100% − cell viability): B16 cells
[11] = tested on: NHDF cells; assay: Skin type I collagen synthesis promoting assay (ELISA, with MTT); assay type: cell-based, human; conditions: fold of control
[12] = tested on: RBL-2H3 cells; assay: Cell viability of RBL-2H3 cells (parallel MTT); assay type: cell-based, rat; conditions: 25 μg/ml, RBL-2H3 cells
In short: as §1

[13] = P. acnes, broth microdilution, read-out: MBC
[14] = P. acnes, broth microdilution, read-out: MIC
[15] = Mus musculus, B16 cells, read-out: Inhibition rate (100% − melanin synthesis)
[16] = Mus musculus, 2.5 μg/ml, B16 cells, read-out: Inhibition rate (100% − melanin synthesis)
[17] = Mus musculus, B16 melanoma cells, read-out: IC50 (melanin synthesis)
[18] = Mus musculus, B16 melanoma cells, read-out: IC50 melanin
[19] = Rattus norvegicus, RBL-2H3, 25 μg/mL, read-out: Inhibition Rate (β-hexosaminidase release)
[20] = Mus musculus, 5 μg/ml, B16 cells, read-out: Inhibition rate (100% − melanin synthesis)
[21] = Rattus norvegicus, RBL-2H3, read-out: Inhibition Rate (β-hexosaminidase release)

Row | SMILES | CC50 at 72 h ([1]; B16 melanoma cells) | inhibitory effect on tyrosinase (in words) [2] | viability at 25 μg/ml [3] [%] | inhibitory activity against TPA-induced inflammation (in words) [4] | inhibitory activity against TPA-induced Epstein–Barr virus early antigen activation (in words) [5] | inhibition at 100 µg/mL ([6]; concentration 100 μg/mL) [%] | activity against P. acnes (in words) [6] | inhibition at 1 µg/mL [8, 15] [%] | inhibition at 2.5 µg/mL [8, 16] [%] | IC50 [8, 17] [µM] | IC50 [8, 18] [µg/mL] | inhibition at 25 µg/mL [9, 19] [%] | Inhibition rate (100% − cell viability) ([10]; 1 μg/ml) [%] | Inhibition rate (100% − cell viability) ([10]; 2.5 μg/ml) [%] | Inhibition rate (100% − cell viability) ([10]; 5 μg/ml) [%] | Inhibition rate (100% − cell viability) ([10]; 10 μg/ml) [%] | Inhibition rate (100% − cell viability) ([10]; 20 μg/ml) [%] | S.I (selectivity index, CC50 value/IC50 value) ([8]; B16 melanoma cells) | inhibition at 5 µg/mL [8, 20] [%] | inhibition at 10 µg/mL [8, 15] [%] | also measured
1 | C[C@H]1[C@H](C)CC[C@]2(C(=O)O)CC[C@]3(C)C(=CC[C@@H]4[C@@]5(C)CC[C@H](O)C(C)(C)[C@@H]5CC[C@]43C)[C@H]12 [Compound 1, Ursolic acid] | 4.3 µg/mL and 9.4 µM | no inhibitory effect | 103 ± 5.3 | significant inhibitory activity | significant inhibitory activity | 109.8 ± 0.5 | active | 24 ± 0.8 | 58.5 ± 3.2 | 4.8 | 2.2 | 72.5 ± 3 | – | – | – | – | – | – | – | – | inhibitory activity on tyrosinase (in words) [2]: moderate inhibitory activity; MBC [6, 13]: 100 µg/mL (≈ 219 µM); MIC [6, 14]: 50 µg/mL (≈ 109 µM); HA/CV value (hyaluronic acid %/cell viability %) ([7]; 5 μg/mL): 4.7; inhibition at 0.5 µg/mL ([8]; Mus musculus, 0.5 μg/ml, B16 cells, read-out: Inhibition rate (100% − melanin synthesis)): 4.2 ± 1.7%; inhibition at 5 µg/mL ([9]; Rattus norvegicus, RBL-2H3, 5 μg/mL, read-out: Inhibition Rate (β-hexosaminidase release)): 0%; inhibition at 12.5 µg/mL ([9]; Rattus norvegicus, RBL-2H3, 12.5 μg/mL, read-out: Inhibition Rate (β-hexosaminidase release)): 37.6 ± 3%; IC50 ([9]; Rattus norvegicus, IgE-stimulated RBL-2H3 cells, read-out: IC50 (β-hexosaminidase release)): 39.5 µM
2 | CC1(C)CC[C@]2(C(=O)O)CC[C@]3(C)C(=CC[C@@H]4[C@@]5(C)C[C@@H](O)[C@H](O)C(C)(C)[C@@H]5CC[C@]43C)[C@@H]2C1 [Compound 7, Maslinic acid] | – | no inhibitory effect | 84.4 | significant inhibitory activity | significant inhibitory activity | – | active | 2.8 ± 1.1 | 12.2 ± 1.9 | 18.5 | 8.7 | – | 2.5 ± 2.2 | 3.2 ± 4.8 | 42.2 ± 4.0 | 44.3 ± 6.4 | 76.5± 3.0 | > 1.0 | 47.5 ± 0.4 | 54.5 ± 3 | CC50 at 72 h [1]: 13.8 µg/mL and 29.3 µM; inhibitory activity on tyrosinase (in words) [2]: moderate inhibitory activity; MBC [6]: 150 µg/mL (≈ 317 µM); MIC [6]: 50 µg/mL (≈ 106 µM); inhibition at 100 µg/mL [6]: 104 ± 3.1%; inhibition at 20 µg/mL ([8]; Mus musculus, 20 μg/ml, B16 cells, read-out: Inhibition rate (100% − melanin synthesis)): 65.1 ± 0.4%; IC50 ([9]; Rattus norvegicus, RBL-2H3, read-out: IC50 (β-hexosaminidase release), IgE-stimulated RBL-2H3 cells): 22.9 µM; inhibition at 5 µg/mL [9, 21]: 9.5 ± 6.6%; inhibition at 12.5 µg/mL [9, 21]: 58.2 ± 3%; inhibition at 25 µg/mL [9, 21]: 66 ± 2.6%; IC50 ([9]; read-out: IC50 (β-hexosaminidase release), IgE-stimulated RBL-2H3 cells): 22.8 µM
3 | C[C@H]1[C@H](C)CC[C@]2(C(=O)O)CC[C@]3(C)C(=CC[C@@H]4[C@@]5(C)C[C@@H](O)[C@H](O)C(C)(C)[C@@H]5CC[C@]43C)[C@H]12 [Compound 8, Corosolic acid] | 12.2 µg/mL and 25.8 µM | – | 80.4 ± 1.6 | – | – | 105.9 ± 0.4 | active | 3.4 ± 5.1 | 0.5 ± 4.1 | 18.7 | 8.8 | 36.1 ± 6.7 | 0.0 ± 3.5 | 0.0 ± 3.8 | 0.3 ± 4.0 | 39.3 ± 4.7 | 94.8± 0.3 | 1.4 | 17.4 ± 5.5 | 59.8 ± 1.9 | MBC [6, 13]: 100 µg/mL (≈ 212 µM); MIC [6, 14]: 50 µg/mL (≈ 106 µM); HA/CV value (hyaluronic acid %/cell viability %) ([7]; 10 μg/mL): 5.9
4 | C[C@H]1[C@H](C)CC[C@]2(C(=O)O)CC[C@]3(C)C(=CC[C@@H]4[C@@]5(C)C[C@@H](O)[C@@H](O)C(C)(C)[C@@H]5CC[C@]43C)[C@H]12 [Compound 9, 3-epicorosolic acid] | – | – | – | significant inhibitory activity | significant inhibitory activity | – | – | – | – | – | – | – | – | 0.0 ± 10.3 | 0.0 ± 11.8 | 3.4 ± 4.1 | 14.8 ± 4.1 | – | – | – | CC50 cell viability ([10]; B16 melanoma cells, MTT): > 20.0 µg/mL; CC50 ([10]; read-out: CC50 (cell viability), B16 melanoma cells, MTT): > 42.3 µM; CP/CV value (collagen production %/cell viability %) ([11]; 1 μg/mL): 1.2; CP/CV value (collagen production %/cell viability %) ([11]; 5 μg/mL): 1.3; Cell viability [12]: 98.0 ± 7.7%; Inhibition Rate (P. acnes growth) ([6]; concentration 100 μg/mL): – (no inhibition); Inhibition rate (100% − melanin synthesis) ([8]; 2.5 μg/ml, B16 cells): 1.0 ± 5.4%; Inhibition rate (100% − melanin synthesis) ([8]; 5 μg/ml, B16 cells): 0.0 ± 5.3%; Inhibition rate (100% − melanin synthesis) ([8]; 20 μg/ml, B16 cells): 7.8± 0.9%; IC50 melanin ([8]; B16 melanoma cells): > 20.0 µg/mL; IC50 ([8]; B16 melanoma cells, read-out: IC50 (melanin synthesis)): > 42.3 µM; Inhibition Rate (β-hexosaminidase release) ([9]; 1 μg/mL): 8.9 ± 5.2%; Inhibition Rate (β-hexosaminidase release) ([9]; 5 μg/mL): 33.7 ± 6.9%; Inhibition Rate (β-hexosaminidase release) ([9]; 12.5 μg/mL): 50.7 ± 3.2 %; Inhibition Rate (β-hexosaminidase release) ([9]; 25 μg/mL): 54.4 ± 4.9 %; IC50 ([9]; IgE-stimulated RBL-2H3 cells, read-out: IC50 (β-hexosaminidase release)): 14.2 µM
5 | C[C@@H]1CC[C@]2(C(=O)O)CC[C@]3(C)C(=CC[C@@H]4[C@@]5(C)CC[C@H](O)C(C)(C)[C@@H]5CC[C@]43C)[C@@H]2[C@]1(C)O [Compound 10, Pomolic acid] | 4.9 µg/mL and 10.5 µM | – | 77 ± 5.3 | – | – | 84.4 ± 1.2 | active | 3.2 ± 8.2 | 28.4 ± 1.5 | 14 | 6.6 | 22.4 ± 1.9 | 1.9 ± 5.4 | 0.0 ± 6.1 | 50.9 ± 4.4 | 68.4 ± 1.5 | – | 0.8 | 43.9 ± 1.9 | 55.8 ± 8.1 | HA/CV value (hyaluronic acid %/cell viability %) ([7]; 10 μg/mL): 5.8
